Read-outs that look alike come from different tables or passages of the source.

Assay [1] has as its target neuraminidase of A/Brisbane/59/07 (H1N1) (Influenza A virus, UniProt D5F1R0). Put plainly: biochemical. In kind it is biochemical.
The target in assay [2] is neuraminidase of B/Malaysia/5206/04 (Influenza B virus, UniProt Q38G90). In words: Neuraminidase inhibition, fluorogenic MUNANA substrate, purified intact virions. In kind it is biochemical. To be noted: read-out: Inhibition of Neuraminidase, IC50.
For assay [3], the target named is neuraminidase of A/Solomon Islands/3/06 (H1N1) (Influenza A virus, UniProt B4URD9). In kind it is biochemical. The note with it: read-out: Inhibition of Neuraminidase, IC50.
Assay [4] has as its target neuraminidase of A/Uruguay/716/07 (H3N2) (Influenza A virus, UniProt I6VF55). The assay is classed as biochemical. To be noted: read-out: Inhibition of Neuraminidase, IC50.
The next assay concerns N2 NAs. To be noted: read-out: inhibition (IC50) of N2 NAs; range over N2 NAs; ref [28]; cited from earlier work.
For the next assay, the system named is type B NAs. To be noted: read-out: inhibition (IC50) of type B NAs; range over type B NAs; ref [28]; cited from earlier work.

Take “4-(2,2-Bis(hydroxymethyl)-3-((3-pentyloxy)methyl)-5-oxopyrrolidin-1-yl)benzoic Acid [Compound 10c]”: in assay [1], the “improved N1 NA activity compared to the parent 3” value was 80–100 fold. The IC50 (usually the concentration needed to halve the response being measured) in assay [1] (read-out: Inhibition of Neuraminidase, IC50) is 1 ± 0.21 µM; in assay [2], 30 ± 1.4 µM; in assay [3], 0.8 ± 0.07 µM; in assay [4] it was 0.5 ± 0.1 µM.

On to `CCC(CC)O[C@@H]1C=C(C(=O)O)C[C@H](N)[C@H]1NC(C)=O` [Compound 1c, oseltamivir carboxylate], for which the IC50 in the assay with N2 NAs was 0.00068 to 0.00178 µM; in the assay on type B NAs, 0.005 to 0.0243 µM.

Compound `CC(C)OCc1cc(C(=O)O)ccc1N1C(=O)CCC1(CO)CO` [Compound 10a, 4-(2,2-Bis(hydroxymethyl)-5-oxopyrrolidin-1-yl)-3-(isopropoxymethyl)benzoic Acid] came in with an IC50 in assay [1] above 10000 µM.

On to `CCC(C)OCc1cc(C(=O)O)ccc1N1C(=O)CCC1(CO)CO` (centres unmarked) [Compound 10b, 4-(2,2-Bis(hydroxymethyl)-5-oxopyrrolidin-1-yl)-3-(2-butoxymethyl)benzoic Acid], for which the half-maximal inhibitory concentration (IC50) in assay [1] amounted to 16 ± 2.1 µM.

`CCC(=Cc1cc(C(=O)O)ccc1N1C(=O)CCC1(CO)CO)CC` [Compound 13b, 4-(2,2-Bis (hydroxymethyl)-5-oxopyrrolidin-1-yl)-3-(2-ethylbut-1-enyl)benzoic Acid]: in assay [1], the midpoint of inhibition, the IC50, lay at 2.4 ± 0.9 µM and the “improved N1 NA activity compared to the parent 3” value is recorded as 30–40 fold.

For the compound `CC(C)Cc1cc(C(=O)O)ccc1N1C(=O)CCC1(CO)CO` [Compound 13c, 4-(2,2-Bis (hydroxymethyl)-5-oxopyrrolidin-1-yl)-3-isobutylbenzoic Acid], in assay [1], the half-maximal inhibitory concentration (IC50) turned out to be 70 ± 7.8 µM.

Regarding `CCC(CC)Cc1cc(C(=O)O)ccc1N1C(=O)CCC1(CO)CO` [Compound 14b, 4-(2,2-Bis (hydroxymethyl)-5-oxopyrrolidin-1-yl)-3-(2-ethylbutyl)benzoic Acid], in assay [1], the midpoint of inhibition, the IC50, lay at 1.6 ± 0.6 µM and the “improved N1 NA activity compared to the parent 3” value is listed as 30–40 fold.
